Assay results taken from patent US20140343017A1, “PYRROLE COMPOUND” (Kabushiki Kaisha Yakult Honsha, priority 2012, published 2014).

What was measured:
[1] = tested on: Human non-small cell lung cancer NCI-H460 cells; assay: Inhibitory effect on growth of PTX-resistant tumor cell line, parent line (in vitro); type: cell-based; details: 96 hours culture, WST-8
Procedure: Each compound of the present invention was studied for its effect on the growth of a tumor cell line having a PTX resistance mechanism different from that attributed to the high expression of P-glycoprotein. Human non-small cell lung cancer NCI-H460 cells were exposed to 1 nM paclitaxel (PTX) and 10 μM verapamil at the same time. Only the PTX concentration was increased to 2, 3, 4, 5, and 7 nM in order over approximately 6 months to establish PTX-resistant H460/PV2-7 cells (PV2-7). […] As for the PTX resistance mechanism different from that attributed to the high expression of P-glycoprotein, an isotype called Class III β-tubulin (TUBB3), which is one isotype of […], has been reported to be highly expressed in PTX-resistant established lines in vitro or in clinical samples from patients having resistance to PTX therapy.
The PV2-7 cells and the parent line NCI-H460 cells were suspended in a medium and inoculated at a cell density of 1000 cells/50 μL/well to a 96-well plate. After overnight culture, each compound diluted 2-fold (final concentration) was added thereto at a concentration of 50 μL/well, and the cells were cultured for 96 hours. After the completion of culture, WST-8 (Seikagaku Corp.) was added thereto at a concentration of 10 μL/well, and the cells were cultured at 37° C. for approximately 1 hour under 5% CO2 conditions, followed by measurement of absorbance at 450 nm.

[2] = tested on: Human uterus cancer MES-SA cells; assay: Inhibitory effect on growth of multidrug-resistant cell line, parent line (in vitro); type: cell-based; details: 48 hours culture, WST-8
Excerpt: (§1) Each compound of the present invention was studied for its effect on the growth of a multidrug-resistant cell line. A drug efflux pump called P-glycoprotein is well known to be involved in the drug resistance mechanism of the multidrug-resistant line MES-SA/Dx5 used in this experiment. Accordingly, in this experiment, paclitaxel and vincristine, which are proven substrates of P-glycoprotein, were used as control drugs. Human uterus cancer MES-SA cells and their multidrug-resistant line MES-SA/Dx5 cells were suspended in a medium and inoculated at a cell density of 2000 cells/50 μL/well to a 96-well plate. After overnight culture, each test sample diluted with a medium was added thereto at a concentration of 50 μL/well, and the cells were further cultured for 48 hours. After the completion of culture, WST-8 was added thereto at a concentration of 10 μL/well, and the cells were cultured at 37° C. for approximately 1 hour under 5% CO2 conditions, followed by measurement of absorbance at a wavelength of 450 nm. […] The resistance rate was calculated according to the following expression:
(§2) Resistance rate=IC50 value (MES-SA/Dx5)/IC50 value (MES-SA)

[3] = tested on: multidrug-resistant line MES-SA/Dx5 cells; assay: Inhibitory effect on growth of multidrug-resistant cell line (in vitro); type: cell-based, human; details: for IC50: Homo sapiens, MES-SA/Dx5 cells, 48 hours culture, WST-8; for Resistance rate: IC50 value (MES-SA/Dx5)/IC50 value (MES-SA)
Excerpt: as §1, §2

[4] = tested on: human colorectal cancer HT-29 cells; assay: Inhibitory effect on growth of human cancer cells (in vitro), WST-8; type: cell-based; details: Homo sapiens, HT-29, 96 h, 96 hours culture, read-out: IC50 (nM) HT29
Method in brief: (§3)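 Cells seeded at 1000 cells/well in RPMI1640 with 10% FBS, compounds added after overnight culture, then 96 h exposure. Viability by WST-8, about 1 h at 37 °C, 5% CO2, absorbance read at 450 nm.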

[5] = tested on: human non-small cell lung cancer A549 cells; assay: as above; type: cell-based; details: Homo sapiens, A549, 96 h, 96 hours culture
Method in brief: as §3

[6] = tested on: human colorectal cancer HCT116 cells; assay: as above; type: cell-based; details: Homo sapiens, HCT-116, 96 h, 96 hours culture
Method in brief: as §3

[7] = tested on: human lung cancer NCI-H460 xenograft tumor; assay: Antitumor effect on growth of human lung cancer NCI-H460 xenograft tumor (in vivo); set-up: species or system BALB/c nude mice; details: Mus musculus, NCI-H460, iv, 528 h, tail vein, excised tumor weight Day 22, read-out: Inhibition Rate (%)
Procedure: Each compound of the present invention was studied for its in vivo antitumor effect using human lung cancer NCI-H460 cell-transplanted mice. An NCI-H460 cell suspension containing 2×10^6 cells was subcutaneously transplanted in an amount of 0.1 mL/mouse to the left groin areas of 6-week-old male BALB/c nude mice. The mice were further raised for approximately 1 week to 10 days and divided into groups (4 mice per group) having equal estimated tumor volumes at the point in time when the tumor size reached approximately 100 to 200 mm^3 (Day 1). Each administration sample was administered at a dose of 10 mL/kg into the tail vein of the mice. The dose and administration schedule of each compound were as described in Table 3. At Day 22, tumor was excised from each mouse. The tumor growth inhibition rate (IR: Inhibition Rate) was calculated from the weight of the excised tumor according to the expression shown below. The Dunnett's test was used in the significant difference test.
Tumor growth inhibition rate (Inhibition Rate, %)=(1−(Excised tumor weight of the administration group)/(Excised tumor weight of the control group))×100

PV2-7 xenograft tumor = assay: Antitumor effect on growth of PV2-7 xenograft tumor (in vivo); set-up: species or system BALB/c nude mice; details: tail vein, once a week, three times in total (Days 1, 8, and 15); FIG. 5
Procedure: The mice were further raised for approximately 1 week to 10 days and divided into groups (4 or 5 mice per group) having equal estimated tumor volumes at the point in time when the tumor size reached approximately 100 to 200 mm^3 (Day 1). Each administration sample was administered at a dose of 10 mL/kg into the tail vein of the mice. In an administration schedule, each sample was administered once a week, three times in total (Days 1, 8, and 15).

[8] = Days 1, 3, 5, 8, 10, 12, 15, 17, 19

SMILES | IC50 [1] | IC50 [2] | IC50 [3] | Resistance rate [3] | IC50 [4] | IC50 [5] | IC50 [6] | other results
CO[C@H]1C(=O)[C@]2(C)[C@@H](OC)C[C@H]3OC[C@@]3(OC(C)=O)[C@H]2[C@H](OC(=O)c2ccccc2)[C@]2(O)C[C@H](OC(=O)[C@H](O)[C@@H](NC(=O)OC(C)(C)C)c3ccccc3)C(C)=C1C2(C)C [Cabazitaxel, cabazitaxel] | 1.3 nM |  |  |  |  |  |  | 
Cc1[nH]c(-c2nnn(CCO)n2)c(C)c1C(=O)c1cccc(Br)c1 [Compound 102, (3-bromophenyl)(5-(2-(2-hydroxyethyl)-2H-tetrazol-5-yl)-2,4-dimethyl-1H-pyrrol-3-yl)methanone] |  | 3.8 nM | 4.3 nM | 1.1 | 8.7 nM | 19.3 nM | 9.5 nM | inhibition in vivo at 12.5 mg/kg [7, 8]: 43.4%; inhibition in vivo at 25 mg/kg ([7]; 25 mg/kg, Days 1, 3, 5, 8, 10, 12, 15, 17, 19): 61.1%; inhibition in vivo at 37.5 mg/kg ([7]; 37.5 mg/kg, Days 1, 3, 5, 8, 10, 12, 15, 17, 19): 80.5%; inhibition in vivo at 40 mg/kg ([7]; 40 mg/kg, Days 1, 5, 9): 96.5%
COc1ccc(C(=O)c2c(C)[nH]c(-c3nnn(CCO)n3)c2C)cc1Br [Compound 110, (3-bromo-4-methoxyphenyl)(5-(2-(2-hydroxyethyl)-2H-tetrazol-5-yl)-2,4-dimethyl-1H-pyrrol-3-yl)methanone] |  | 5.5 nM | 22.7 nM | 4.2 | 8.2 nM | 39.3 nM | 14.2 nM | inhibition in vivo at 12.5 mg/kg [7, 8]: 55.8%; inhibition in vivo at 18.75 mg/kg ([7]; 18.75 mg/kg, Days 1, 3, 5, 8, 10, 12, 15, 17, 19): 77.4%
Cc1c(-c2nnn(CCO)n2)[nH]c(CO)c1C(=O)c1cccc(Br)c1 [Compound 121, (3-bromophenyl)(5-(2-(2-hydroxyethyl)-2H-tetrazol-5-yl)-2-(hydroxymethyl)-4-methyl-1H-pyrrol-3-yl)methanone] | 76.2 nM | 49.8 nM | 88.4 nM | 1.8 | 43.8 nM | 122 nM | 43.5 nM | inhibition in vivo at 60 mg/kg ([7]; 60 mg/kg, Days 1, 3, 5, 8, 10, 12, 15, 17, 19): 60.6%; inhibition in vivo at 120 mg/kg ([7]; 120 mg/kg, Days 1, 8, 15): 75.5%
Cc1c(-c2nnn(CCO)n2)[nH]c(C(C)O)c1C(=O)c1cccc(Br)c1 (stereo not shown) [Compound 123, (3-bromophenyl)(2-(1-hydroxyethyl)-5-(2-(2-hydroxyethyl)-2H-tetrazol-5-yl)-4-methyl-1H-pyrrol-3-yl)methanone] | 68.8 nM | 63.3 nM | 135 nM | 2.1 | 39.5 nM | 326 nM | 46.1 nM | inhibition in vivo at 50 mg/kg ([7]; 50 mg/kg, Days 1, 3, 5, 8, 10, 12, 15, 17, 19): 58.2%; inhibition in vivo at 100 mg/kg ([7]; 100 mg/kg, Days 1, 5, 9): 56.5%
CNC(=O)c1[nH]c(-c2nnn(CCO)n2)c(C)c1C(=O)c1cccc(Br)c1 [Compound 142, 3-(3-bromobenzoyl)-5-(2-(2-hydroxyethyl)-2H-tetrazol-5-yl)-N,4-dimethyl-1H-pyrrole-2-carboxamide] | 374 nM | 238 nM | 656 nM | 2.8 | 176 nM | 257 nM | 194 nM | inhibition in vivo at 140 mg/kg ([7]; 140 mg/kg, Days 1, 8, 15): 73.8%
COc1ccc(C(=O)c2c(C)[nH]c(-c3nnc(C4CC4)o3)c2C)cc1Br [Compound 198, (3-bromo-4-methoxyphenyl) (5-(5-cyclopropyl-1,3,4-oxadiazol-2-yl)-2,4-dimethyl-1H-pyrrol-3-yl)methanone] |  | 0.21 nM | 0.28 nM | 1.3 | 0.3 nM | 1.8 nM | 0.9 nM | inhibition in vivo at 10 mg/kg ([7]; 10 mg/kg, Days 1, 3, 8, 10, 12, 15, 17, 19): 51.6%
CC(=O)O[C@@]12CO[C@@H]1C[C@H](O)[C@@]1(C)C(=O)[C@H](O)C3=C(C)[C@@H](OC(=O)[C@H](O)[C@@H](NC(=O)OC(C)(C)C)c4ccccc4)C[C@@](O)([C@@H](OC(=O)c4ccccc4)[C@H]21)C3(C)C [Docetaxel, docetaxel] | 1.5 nM |  |  |  |  |  |  | 
CC(=O)O[C@H]1C(=O)[C@@]2(C)[C@H]([C@H](OC(=O)c3ccccc3)[C@]3(O)C[C@H](OC(=O)[C@H](O)[C@@H](NC(=O)c4ccccc4)c4ccccc4)C(C)=C1C3(C)C)[C@]1(OC(C)=O)CO[C@@H]1C[C@@H]2O [Paclitaxel, paclitaxel, reference compound] | 3.5 nM | 15.2 nM | 3700 nM | 243.3 |  |  |  | antitumor effect on PV2-7 cell-transplanted mice (PV2-7 xenograft tumor): hardly effective
CC[C@]1(O)C[C@H]2CN(CCc3c([nH]c4ccccc34)[C@@](C(=O)OC)(c3cc4c(cc3OC)N(C=O)[C@H]3[C@@](O)(C(=O)OC)[C@H](OC(C)=O)[C@]5(CC)C=CCN6CC[C@]43[C@@H]65)C2)C1 [Vincristine, vincristine, reference compound] |  | 36.2 nM | 2440 nM | 67.5 |  |  |  | 
